Experimental data taken from US10703733B2, “MCL-1 inhibitors” (Gilead Sciences, Inc., priority 2018, dated 2020).
pEC50, pIC50: −log10 of the molar value. Like-named read-outs stand apart in the source and are kept apart here.

Assays:
[1] = molecular target: MCL-1/Bim interaction (recombinant human MCL-1 protein, residues 171-327; biotinylated human Bim peptide, residues 51-76) (Homo sapiens (Human), UniProt Q07820); assay: MCL-1/Bim Binding AlphaLISA Assay; details: 0.0625 nM 6xHis-Mcl-1 (171-327), 0.0625 nM biotinylated-Bim peptide
Method in brief: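 AlphaLISA with 0.0625 nM His-tagged MCL-1 (171-327) and 0.0625 nM biotinylated Bim (51-76) in 20 mM Hepes pH 7.5, 150 mM NaCl, 0.002% Brij 35, 1 mM DTT, 0.01% BSA. Compound preincubated 1 h with MCL-1, then Bim 2 h, acceptor beads 1 h, donor beads 1 h; percent inhibition against DMSO and no-protein/no-peptide controls.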

SKBR3 cells = assay: SKBR3 Cell Viability Assay (CellTiter Glo); type: cell-based; details: CellTiter Glo luminescence, read-out: MCL-1 CV SKBR3 EC50
Method in brief: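 SKBR3 cells (6,000/well) in McCoy 5A + 10% FBS exposed to serially diluted compound for 72 h at 37° C., 5% CO2. Viability by CellTiter Glo luminescence; % inhibition normalized to DMSO (negative) and 10 μM puromycin (positive).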

MCL-1/Bim interaction (recombinant human MCL-1 protein, residues 171-327; biotinylated human Bim peptide, residues 51-76), sequence (Q07820 171-327): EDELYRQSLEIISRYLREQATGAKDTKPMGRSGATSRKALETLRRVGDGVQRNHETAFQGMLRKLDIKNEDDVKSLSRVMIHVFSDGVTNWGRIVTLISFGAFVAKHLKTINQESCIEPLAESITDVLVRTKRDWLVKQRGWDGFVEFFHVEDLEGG

Structure (SMILES)	pIC50 [1]	pEC50 (SKBR3 cells; Homo sapiens, SK-BR-3, 72 h)	pEC50 (SKBR3 cells; 72 hours)
CO[C@H]1/C=C/C[C@H](C)C[S@@](=O)(NC(=O)c2cc3n(c2)C(=O)CCC3)=NC(=O)c2ccc3c(c2)N(C[C@@H]2CC[C@H]21)C[C@@]1(CCCc2cc(Cl)ccc21)CO3 [Example 145]	10.43	6.83	
CO[C@H]1/C=C/C[C@H](C)C[S@@](=O)(NC(=O)N2CCN(CC#N)CC2)=NC(=O)c2ccc3c(c2)N(C[C@@H]2CC[C@H]21)C[C@@]1(CCCc2cc(Cl)ccc21)CO3 [Example 270]	10.39	7.21	
C[C@@H]1[C@@H](C)C/C=C/[C@H](O)[C@@H]2CC[C@H]2CN2C[C@@]3(CCCc4cc(Cl)ccc43)COc3ccc(cc32)C(=O)N=[S@]1(=O)NC(=O)c1cc2n(c1)C[C@H](CO)OC2 [Example 329]	10.06	7.24	
CO[C@H]1/C=C/C[C@H](C)C[S@@](=O)(NC(=O)N2CC(OC(=O)N(C)C)C2)=NC(=O)c2ccc3c(c2)N(C[C@@H]2CC[C@H]21)C[C@@]1(CCCc2cc(Cl)ccc21)CO3 [Example 292]	10.70	7.35	
CC[C@@H]1CC/C=C/[C@H](OC)[C@@H]2CC[C@H]2CN2C[C@@]3(CCCc4cc(Cl)ccc43)COc3ccc(cc32)C(=O)N=[S@@]1(=O)NC(=O)CCc1ccnn1C [Example 70]	9.70		6.43
CO[C@H]1/C=C/CCC[S@@](=O)(NC(=O)CCn2cccn2)=NC(=O)c2ccc3c(c2)N(C[C@@H]2CC[C@H]21)C[C@@]1(CCCc2cc(Cl)ccc21)CO3 [Example 39]	10.00	6.58	
CO[C@H]1/C=C/CCC[S@@](=O)(NC(=O)CCn2cc(Cl)cn2)=NC(=O)c2ccc3c(c2)N(C[C@@H]2CC[C@H]21)C[C@@]1(CCCc2cc(Cl)ccc21)CO3 [Example 55]	9.70	6.16	
CO[C@H]1/C=C/C[C@H](C)[C@@H](C)[S@@](=O)(NC(=O)CO[C@H]2CCOC[C@H]2F)=NC(=O)c2ccc3c(c2)N(C[C@@H]2CC[C@H]21)C[C@@]1(CCCc2cc(Cl)ccc21)CO3 [Example 133]	10.29	6.89	
CO[C@H]1/C=C/C[C@H](C)C[S@@](=O)(NC(=O)N[C@H]2C[C@@H]2OC)=NC(=O)c2ccc3c(c2)N(C[C@@H]2CC[C@H]21)C[C@@]1(CCCc2cc(Cl)ccc21)CO3 [Example 160]	10.51	7.46	
CO[C@H]1/C=C/CCC[S@@](=O)(NC(=O)NCc2ccnn2C)=NC(=O)c2ccc3c(c2)N(C[C@@H]2CC[C@H]21)C[C@@]1(CCCc2cc(Cl)ccc21)CO3 [Example 75]	9.52	6.16	
COC1CN(C(=O)N[S@@]2(=O)=NC(=O)c3ccc4c(c3)N(C[C@@H]3CC[C@H]3[C@@H](OC)CCC[C@H](C)C2)C[C@@]2(CCCc3cc(Cl)ccc32)CO4)C1 [Example 244]	10.49	6.93	
CO[C@H]1/C=C/C[C@H](C)C[S@@](=O)(NC(=O)NC2CCC2)=NC(=O)c2ccc3c(c2)N(C[C@@H]2CC[C@H]21)C[C@@]1(CCCc2cc(Cl)ccc21)CO3 [Example 423]	10.25	6.77	
CO[C@H]1/C=C/[C@H](OC)[C@H](C)C[S@@](=O)(NC(=O)N[C@H]2CC2C(F)F)=NC(=O)c2ccc3c(c2)N(C[C@@H]2CC[C@H]21)C[C@@]1(CCCc2cc(Cl)ccc21)CO3 (some centres unmarked) [Example 227]	10.12	7.67	
CO[C@H]1/C=C/CCC[S@@](=O)(NC(=O)CCC(F)(F)F)=NC(=O)c2ccc3c(c2)N(C[C@@H]2CC[C@H]21)C[C@@]1(CCCc2cc(Cl)ccc21)CO3 [Example 94]	9.05	6.04	
CO[C@H]1/C=C/CCC[S@@](=O)(NC(=O)Cc2cnccn2)=NC(=O)c2ccc3c(c2)N(C[C@@H]2CC[C@H]21)C[C@@]1(CCCc2cc(Cl)ccc21)CO3 [Example 20]	9.30	5.69	
CO[C@H]1/C=C/C[C@H](C)C[S@@](=O)(NC(=O)C2CC(C)(OC)C2)=NC(=O)c2ccc3c(c2)N(C[C@@H]2CC[C@H]21)C[C@@]1(CCCc2cc(Cl)ccc21)CO3 (some centres unmarked) [Example 169]	10.32	7.21	
COC1CCN(C2CN(C(=O)N[S@@]3(=O)=NC(=O)c4ccc5c(c4)N(C[C@@H]4CC[C@H]4[C@@H](OC)/C=C/C[C@H](C)C3)C[C@@]3(CCCc4cc(Cl)ccc43)CO5)C2)CC1 [Example 287]	10.54	7.60	
COc1nn(C)cc1C(=O)N[S@@]1(=O)=NC(=O)c2ccc3c(c2)N(C[C@@H]2CC[C@H]2[C@@H](OC)/C=C/[C@@H](OC)CC1)C[C@@]1(CCCc2cc(Cl)ccc21)CO3 [Example 394]	8.76	5.32	
COc1nn(C)cc1C(=O)N[S@@]1(=O)=NC(=O)c2ccc3c(c2)N(C[C@@H]2CC[C@H]2[C@@H](OC)/C=C/[C@H](OCc2ccccn2)[C@H](C)C1)C[C@@]1(CCCc2cc(Cl)ccc21)CO3 [Example 402]	10.01	7.05	

More lines, in order of rising pIC50 [1], values ahead:

pIC50 [1]	pEC50 (SKBR3 cells; Homo sapiens, SK-BR-3, 72 h)	pEC50 (SKBR3 cells; 72 hours)	Structure (SMILES)
8.28		5.23	CCC(=O)N[S@]1(=O)=NC(=O)c2ccc3c(c2)N(C[C@@H]2CC[C@H]2[C@@H](OC)/C=C/CC[C@H]1CC)C[C@@]1(CCCc2cc(Cl)ccc21)CO3 [Example 64]
9.52	5.66		CO[C@H]1/C=C/CCC[S@@](=O)(NC(=O)c2cc3ccccc3n2C)=NC(=O)c2ccc3c(c2)N(C[C@@H]2CC[C@H]21)C[C@@]1(CCCc2cc(Cl)ccc21)CO3 [Example 98]
9.70	6.55		CO[C@H]1/C=C/CCC[S@@](=O)(NC(=O)CCc2ccncn2)=NC(=O)c2ccc3c(c2)N(C[C@@H]2CC[C@H]21)C[C@@]1(CCCc2cc(Cl)ccc21)CO3 [Example 38]
9.73	6.87		CO[C@H]1/C=C/C[C@H](C)C[S@@](=O)(NC(=O)c2cnn(CC3CC3)c2)=NC(=O)c2ccc3c(c2)N(C[C@@H]2CC[C@H]21)C[C@@]1(CCCc2cc(Cl)ccc21)CO3 [Example 419]
9.85	6.97		CO[C@H]1/C=C/C[C@H](C)C[S@@](=O)(NC(=O)c2cn(C)nc2C2CC2)=NC(=O)c2ccc3c(c2)N(C[C@@H]2CC[C@H]21)C[C@@]1(CCCc2cc(Cl)ccc21)CO3 [Example 164]
9.89	6.58		CNC1CN(C(=O)N[S@@]2(=O)=NC(=O)c3ccc4c(c3)N(C[C@@H]3CC[C@H]3[C@@H](OC)/C=C/C[C@H](C)C2)C[C@@]2(CCCc3cc(Cl)ccc32)CO4)C1 [Example 294]
9.89	6.65		CO[C@H]1/C=C/C[C@H](C)C[S@@](=O)(NC(=O)N2CC(OC(=O)N3CCCCC3)C2)=NC(=O)c2ccc3c(c2)N(C[C@@H]2CC[C@H]21)C[C@@]1(CCCc2cc(Cl)ccc21)CO3 [Example 385]
9.95	7.08		CO[C@H]1/C=C/C[C@H](C)C[S@@](=O)(NC(=O)N[C@H]2C[C@@H]2C)=NC(=O)c2ccc3c(c2)N(C[C@@H]2CC[C@H]21)C[C@@]1(CCCc2cc(Cl)ccc21)CO3 [Example 117]
10.00		6.68	CO[C@H]1/C=C/C[C@H](C)[C@@H](C)[S@@](=O)(NC(=O)CCc2ccnn2C)=NC(=O)c2ccc3c(c2)N(C[C@@H]2CC[C@H]21)C[C@@]1(CCCc2cc(Cl)ccc21)CO3 [Example 49]
10.00	6.29		CO[C@H]1/C=C/CCC[S@@](=O)(NC(=O)CCc2cnn(C)n2)=NC(=O)c2ccc3c(c2)N(C[C@@H]2CC[C@H]21)C[C@@]1(CCCc2cc(Cl)ccc21)CO3 [Example 46]
10.00		6.34	CO[C@H]1/C=C/CCC[S@@](=O)(NC(=O)[C@@H]2C[C@H]2c2ccnn2C)=NC(=O)c2ccc3c(c2)N(C[C@@H]2CC[C@H]21)C[C@@]1(CCCc2cc(Cl)ccc21)CO3 [Example 83]
10.02	7.15		CCN(CC)C(=O)OC1CN(C(=O)N[S@@]2(=O)=NC(=O)c3ccc4c(c3)N(C[C@@H]3CC[C@H]3[C@@H](OC)/C=C/C[C@H](C)C2)C[C@@]2(CCCc3cc(Cl)ccc32)CO4)C1 [Example 226]
10.07	6.80		CO[C@H]1/C=C/C[C@H](C)C[S@@](=O)(NC(=O)[C@H]2C[C@@H](OC)C2)=NC(=O)c2ccc3c(c2)N(C[C@@H]2CC[C@H]21)C[C@@]1(CCCc2cc(Cl)ccc21)CO3 [Example 127]
10.13	6.64		CO[C@H]1/C=C/C[C@H](C)C[S@@](=O)(NC(=O)N[C@@H]2C[C@H]2C(F)F)=NC(=O)c2ccc3c(c2)N(C[C@@H]2CC[C@H]21)C[C@@]1(CCCc2cc(Cl)ccc21)CO3 [Example 310]
10.15	7.41		CO[C@H]1/C=C/C[C@H](C)C[S@@](=O)(NC(=O)N[C@H]2C[C@H](OC)C2)=NC(=O)c2ccc3c(c2)N(C[C@@H]2CC[C@H]21)C[C@@]1(CCCc2cc(Cl)ccc21)CO3 [Example 150]
10.24	7.16		COc1nn(C)cc1C(=O)N[S@@]1(=O)=NC(=O)c2ccc3c(c2)N(C[C@@H]2CC[C@H]2[C@@H](OC(=O)CN(C)C(=O)CNC(C)(C)C)/C=C/C[C@H](C)[C@H]1C)C[C@@]1(CCCc2cc(Cl)ccc21)CO3 [Example 293]
10.44		7.53	CO[C@H]1/C=C/C[C@H](C)C[S@@](=O)(NC(=O)N[C@H]2C[C@@H]2OC)=NC(=O)c2ccc3c(c2)N(C[C@@H]2CC[C@H]21)C[C@@]1(CCCc2cc(Cl)ccc21)CO3 (single isomer, unassigned) [Example 195]
10.59	7.47		CO[C@H]1/C=C/C[C@H](C)C[S@@](=O)(NC(=O)N2CC(N3CCOCC3)C2)=NC(=O)c2ccc3c(c2)N(C[C@@H]2CC[C@H]21)C[C@@]1(CCCc2cc(Cl)ccc21)CO3 [Example 349]
